Data taken from ChEMBL document CHEMBL1201862, “PubChem BioAssay data set” (2004).
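Briefly, cells in 96-well plates were exposed to five compound concentrations for 48 h, and endpoints were estimated by linear interpolation. Abbreviation: GI50, concentration required for 50% inhibition of growth.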 Activity calls are given as the source filed them. No stated cut-off is given here; in the data, active = GI50 up to about 1.1 µM and inactive = higher.

Assays:
Experiment in all cases: NCI-60 cell line screen, 48 h
SK-MEL-28 = test system: SK-MEL-28
SF-295 = test system: SF-295
SW-620 = test system: SW-620
SR = test system: SR
786-0 = test system: 786-0
DU-145 = test system: DU-145
LOX IMVI = test system: LOX IMVI
NCI-H23 = test system: NCI-H23
HCC 2998 = test system: HCC 2998
SF-268 = test system: SF-268
SF-539 = test system: SF-539
OVCAR-5 = test system: OVCAR-5
CCRF-CEM = test system: CCRF-CEM
NCI-H226 = test system: NCI-H226
Malme-3M = test system: Malme-3M
UO-31 = test system: UO-31
CAKI-1 = test system: CAKI-1
A498 = test system: A498

With `O/N=C1\C=Cc2nn(-c3ccccc3)nc2\C1=N/O` the GI50 (SK-MEL-28) was 6.21 µM (inactive), the GI50 (SF-295) was 4.89 µM (inactive) and the GI50 (SW-620) was 5.41 µM (inactive). For the same compound, the GI50 (SR) was 3.64 µM (inactive), the GI50 (786-0) was 6.11 µM (inactive) and the GI50 (DU-145) was 1.07 µM (active). For the same compound, the GI50 (LOX IMVI) was 2.81 µM (inactive), the GI50 (NCI-H23) was 3.77 µM (inactive) and the GI50 (HCC 2998) was 14.5 µM (inactive). For the same compound, the GI50 (SF-268) was 4.27 µM (inactive), the GI50 (SF-539) was 4.22 µM (inactive) and the GI50 (OVCAR-5) was 7.41 µM (inactive). For the same compound, the GI50 (CCRF-CEM) was 2.42 µM (inactive), the GI50 (NCI-H226) was 2.1 µM (inactive) and the GI50 (Malme-3M) was 17.7 µM (inactive). For the same compound, the GI50 (UO-31) was 3.15 µM (inactive) and the GI50 (CAKI-1) was 4.27 µM (inactive).
For `COC(=O)CC1C2(C)C3=C(C)C(c4ccoc4)CC3OC2C2OC(=O)C3(C)C=CC(=O)C1(C)C23` (centres undefined), the GI50 (SK-MEL-28) was 1.16 µM (inactive), the GI50 (SF-295) was 3.22 µM (inactive) and the GI50 (SW-620) was 1.33 µM (inactive). The GI50 (786-0) was 0.869 µM (active), the GI50 (A498) was 1.94 µM (inactive) and the GI50 (DU-145) was 0.76 µM (active). For the same compound, the GI50 (LOX IMVI) was 0.986 µM (active), the GI50 (NCI-H23) was 1.57 µM (inactive) and the GI50 (HCC 2998) was 1.41 µM (inactive). The GI50 (SF-268) was 2.07 µM (inactive), the GI50 (SF-539) was 0.869 µM (active) and the GI50 (OVCAR-5) was 2.3 µM (inactive). The GI50 (CCRF-CEM) was 0.317 µM (active), the GI50 (NCI-H226) was 2.13 µM (inactive) and the GI50 (Malme-3M) was 1.02 µM (active). For the same compound, the GI50 (UO-31) was 1.19 µM (inactive) and the GI50 (CAKI-1) was 0.841 µM (active).
`COc1ccc(C/C=C(\C)CCO)cc1` was tested, and the GI50 (SF-295) was > 100 µM (inactive), the GI50 (SW-620) was > 100 µM (inactive) and the GI50 (SR) was > 100 µM (inactive). For the same compound, the GI50 (786-0) was > 100 µM (inactive), the GI50 (DU-145) was > 100 µM (inactive) and the GI50 (LOX IMVI) was > 100 µM (inactive). For the same compound, the GI50 (NCI-H23) was > 100 µM (inactive), the GI50 (SF-268) was > 100 µM (inactive) and the GI50 (SF-539) was > 100 µM (inactive). The GI50 (OVCAR-5) was > 100 µM (inactive), the GI50 (CCRF-CEM) was > 100 µM (inactive) and the GI50 (UO-31) was > 100 µM (inactive). For the same compound, the GI50 (CAKI-1) was 38.5 µM (inactive).
`COc1ccc(C2OC2C(=O)C23CC4CC(CC(C4)C2)C3)cc1` (centres undefined) was tested, and the GI50 (SK-MEL-28) was > 100 µM (inactive), the GI50 (SF-295) was 33.7 µM (inactive) and the GI50 (SW-620) was > 100 µM (inactive). The GI50 (786-0) was 46.3 µM (inactive), the GI50 (A498) was > 100 µM (inactive) and the GI50 (DU-145) was 90.8 µM (inactive). The GI50 (LOX IMVI) was 19.1 µM (inactive), the GI50 (NCI-H23) was 76 µM (inactive) and the GI50 (HCC 2998) was 31 µM (inactive). The GI50 (SF-268) was 54.6 µM (inactive), the GI50 (SF-539) was > 100 µM (inactive) and the GI50 (OVCAR-5) was > 100 µM (inactive). For the same compound, the GI50 (CCRF-CEM) was 60.7 µM (inactive), the GI50 (NCI-H226) was > 100 µM (inactive) and the GI50 (Malme-3M) was > 100 µM (inactive). The GI50 (UO-31) was > 100 µM (inactive).
For `O=C(C/N=C(\CN(c1ccccc1)c1ccccc1)Oc1c(Cl)cc(Cl)cc1Cl)N1c2ccccc2Sc2ccccc21`, the GI50 (SK-MEL-28) was > 100 µM (inactive), the GI50 (SF-295) was > 100 µM (inactive) and the GI50 (SW-620) was 65 µM (inactive). For the same compound, the GI50 (SR) was 35.2 µM (inactive), the GI50 (786-0) was 55.3 µM (inactive) and the GI50 (DU-145) was > 100 µM (inactive). For the same compound, the GI50 (NCI-H23) was 40.2 µM (inactive), the GI50 (HCC 2998) was 36.7 µM (inactive) and the GI50 (SF-268) was 81.7 µM (inactive). The GI50 (SF-539) was > 100 µM (inactive), the GI50 (OVCAR-5) was 30.4 µM (inactive) and the GI50 (CCRF-CEM) was 41.8 µM (inactive). The GI50 (NCI-H226) was 24.4 µM (inactive) and the GI50 (Malme-3M) was 31 µM (inactive).
`CC1OC2OC3C(OCC(O)C3O)OC(=O)[C@]34CCC(C)(C)CC3C3=CCC5[C@@]6(C)C[C@H](O)[C@H](OC7OC(CO)C(O)C(O)C7OC7OC(COC(=O)CC(C)(O)CC(=O)OC1C(O)C2O)C(O)C(O)C7O)[C@@](C)(CO)C6CC[C@@]5(C)[C@]3(C)CC4` (some centres undefined) was tested, and the GI50 (SK-MEL-28) was 1.5 µM (inactive), the GI50 (SF-295) was 1.78 µM (inactive) and the GI50 (SW-620) was 1.16 µM (inactive). For the same compound, the GI50 (SR) was 1.6 µM (inactive), the GI50 (786-0) was 1.21 µM (inactive) and the GI50 (DU-145) was 1.75 µM (inactive). The GI50 (LOX IMVI) was 1.61 µM (inactive), the GI50 (NCI-H23) was 1.64 µM (inactive) and the GI50 (HCC 2998) was 1.32 µM (inactive). For the same compound, the GI50 (SF-268) was 1.54 µM (inactive), the GI50 (SF-539) was 2.56 µM (inactive) and the GI50 (OVCAR-5) was 1.61 µM (inactive). For the same compound, the GI50 (CCRF-CEM) was 1.51 µM (inactive), the GI50 (NCI-H226) was 2.48 µM (inactive) and the GI50 (UO-31) was 1.22 µM (inactive). The GI50 (CAKI-1) was 1.45 µM (inactive).
`O=C(CC(=O)N1N=C(N(c2ccccc2)c2ccccc2)CC1c1ccccc1)Nc1cccc(Cl)c1` (centres undefined) was tested, and the GI50 (SK-MEL-28) was > 100 µM (inactive), the GI50 (SF-295) was > 100 µM (inactive) and the GI50 (SW-620) was > 100 µM (inactive). For the same compound, the GI50 (SR) was > 100 µM (inactive), the GI50 (786-0) was > 100 µM (inactive) and the GI50 (DU-145) was > 100 µM (inactive). The GI50 (NCI-H23) was > 100 µM (inactive), the GI50 (HCC 2998) was > 100 µM (inactive) and the GI50 (SF-268) was > 100 µM (inactive). For the same compound, the GI50 (SF-539) was > 100 µM (inactive), the GI50 (OVCAR-5) was > 100 µM (inactive) and the GI50 (CCRF-CEM) was > 100 µM (inactive). For the same compound, the GI50 (NCI-H226) was > 100 µM (inactive), the GI50 (UO-31) was > 100 µM (inactive) and the GI50 (CAKI-1) was > 100 µM (inactive).
In the case of `CSc1c(CC(=O)O)n(Cc2ccccc2)c2ccccc12`, the GI50 (SK-MEL-28) is reported as > 100 µM (inactive), the GI50 (SF-295) is reported as 79.8 µM (inactive) and the GI50 (SW-620) is reported as > 100 µM (inactive). The GI50 (SR) was > 100 µM (inactive), the GI50 (786-0) was > 100 µM (inactive) and the GI50 (A498) was > 100 µM (inactive). For the same compound, the GI50 (DU-145) was > 100 µM (inactive), the GI50 (LOX IMVI) was > 100 µM (inactive) and the GI50 (NCI-H23) was > 100 µM (inactive). For the same compound, the GI50 (SF-268) was > 100 µM (inactive), the GI50 (SF-539) was > 100 µM (inactive) and the GI50 (OVCAR-5) was > 100 µM (inactive). For the same compound, the GI50 (CCRF-CEM) was 84.7 µM (inactive), the GI50 (Malme-3M) was > 100 µM (inactive) and the GI50 (UO-31) was > 100 µM (inactive). The GI50 (CAKI-1) was > 100 µM (inactive).
